# In PubChem BioAssay (NCI):
#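 96-well plates; 48 h exposure; 5 concentrations. Endpoints by linear interpolation between flanking doses. Not reached: highest tested concentration assigned. Abbreviation: GI50, concentration required for 50% inhibition of growth. TGI is the concentration that stops growth completely.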
# Legend:
# Experiment in all cases: NCI anticancer screen, dose series, 48 h
# [1] = system: A498 renal
# [2] = system: ACHN renal
# [3] = system: BT-549 breast
# [4] = system: CAKI-1 renal
# [5] = system: CCRF-CEM leukemia
# [6] = system: DU-145 prostate
# [7] = system: EKVX NSCLC
# [8] = system: HCC-2998 colon
# [9] = system: HCT-116 colon
# [10] = system: HCT-15 colon
# [11] = system: HL-60(TB) leukemia
# [12] = system: HOP-92 NSCLC
# [13] = system: KM12 colon
# [14] = system: M14 melanoma
# [15] = system: MDA-MB-231 breast
# [16] = system: MDA-MB-435
# [17] = system: NCI-H226 lung
# [18] = system: NCI-H23 lung
# [19] = system: NCI-H460 lung
# [20] = system: NCI/ADR-RES ovarian
# [21] = system: OVCAR-3 ovarian
# [22] = system: OVCAR-5 ovarian
# [23] = system: RPMI-8226 leukemia
# [24] = system: RXF 393 renal
# [25] = system: SF-295 CNS
# [26] = system: SF-539 CNS
# [27] = system: SK-MEL-2 melanoma
# [28] = system: SK-MEL-28 melanoma
# [29] = system: SK-MEL-5 melanoma
# [30] = system: SK-OV-3 ovarian
# [31] = system: SN12C renal
# [32] = system: SNB-75 CNS
# [33] = system: SW-620 colon
# [34] = system: TK-10 renal
# [35] = system: UACC-257 melanoma
# [36] = system: UACC-62 melanoma
# [37] = system: UO-31 renal
compound,measurement,setting,value
Cc1[nH]c(C(=O)Nc2ccccc2OCc2cccc(C(=O)NC3CCNC3)c2)c(Cl)c1Cl (centres undefined),GI50,[1],12.6 µM
same,TGI,[1],26.7 µM
same,GI50,[2],3.17 µM
same,TGI,[2],11.5 µM
same,GI50,[3],5.15 µM
same,TGI,[3],25.1 µM
same,GI50,[4],2.05 µM
same,TGI,[4],5.1 µM
same,GI50,[5],1.91 µM
same,TGI,[5],4.46 µM
same,GI50,[6],1.88 µM
same,TGI,[6],3.37 µM
same,GI50,[7],1.95 µM
same,TGI,[7],4.64 µM
same,GI50,[8],1.91 µM
same,TGI,[8],3.55 µM
same,GI50,[9],1.85 µM
same,TGI,[9],3.67 µM
same,GI50,[10],4.87 µM
same,TGI,[10],22.7 µM
same,GI50,[11],2.21 µM
same,TGI,[11],5.11 µM
same,GI50,[12],3.57 µM
same,TGI,[12],20.5 µM
same,GI50,[13],1.94 µM
same,TGI,[13],3.69 µM
same,GI50,[14],1.75 µM
same,TGI,[14],3.4 µM
same,GI50,[15],1.88 µM
same,TGI,[15],3.59 µM
same,GI50,[16],1.79 µM
same,TGI,[16],3.33 µM
same,GI50,[17],15.3 µM
same,TGI,[17],47.3 µM
same,GI50,[18],1.91 µM
same,TGI,[18],3.89 µM
same,GI50,[19],1.9 µM
same,TGI,[19],3.58 µM
same,GI50,[20],> 100 µM
same,TGI,[20],> 100 µM
same,GI50,[21],1.89 µM
same,TGI,[21],3.44 µM
same,GI50,[22],1.76 µM
same,TGI,[22],3.24 µM
same,GI50,[23],2.31 µM
same,TGI,[23],5.07 µM
same,GI50,[24],2.07 µM
same,TGI,[24],4.9 µM
same,GI50,[25],4.52 µM
same,TGI,[25],38.9 µM
same,GI50,[26],1.74 µM
same,TGI,[26],3.26 µM
same,GI50,[27],19 µM
same,TGI,[27],57.1 µM
same,GI50,[28],1.86 µM
same,TGI,[28],3.43 µM
same,GI50,[29],5.25 µM
same,TGI,[29],19.2 µM
same,GI50,[30],23.6 µM
same,TGI,[30],47.3 µM
same,GI50,[31],11 µM
same,TGI,[31],27.7 µM
same,GI50,[32],1.56 µM
same,TGI,[32],4.95 µM
same,GI50,[33],1.86 µM
same,TGI,[33],3.54 µM
same,GI50,[34],2.86 µM
same,TGI,[34],7.19 µM
same,GI50,[35],5.75 µM
same,TGI,[35],31.1 µM
same,GI50,[36],1.67 µM
same,TGI,[36],3.32 µM
same,GI50,[37],15.4 µM
same,TGI,[37],51.1 µM
